Assay [1] relates to Plasmodium falciparum strain W2. The assay can be described thus: In vitro screening protocol II, [3H] hypoxanthine incorporation IC50 assay, W2. It is filed as cell-based. To be noted: P. falciparum W2; for IC50: Plasmodium falciparum. Here is the method: (§1) The protocol described here is a modification of the in vitro screening protocol I and the details of the methodology are given below.
(§2) Plasmodium falciparum strains 3D7A and W2.
(§3) The culture medium comprised RPMI 1640 with 25 mM HEPES, sodium bicarbonate and glutamine (GIBCO™ cat. ref.: 52400), supplemented with 10% of pooled human sera AB (Bioreclamation HMSRM-AB)) and HT supplement (0.15 mM hypoxanthine and 24 μM thymidine), (GIBCO™ cat. ref.: 41065). Human sera were decomplemented 30 min. at 56° C., aliquoted and stored frozen at −20° C. until use in this culture medium.
(§4) This culture medium (“complete medium”) was usually prepared fresh just before use and pre-warmed to 37° C.
(§5) Red blood cells AB− stock suspensions were prepared from whole blood bags coming from incomplete blood donation, provided by the Spanish Red Cross (<25 days after sampling). This “whole blood” was aliquoted and stored at 4° C.
(§6) To prepare red blood cells for the assay, the whole blood was centrifuged and washed 3 times with RPMI without serum. The upper phase, containing white blood cells was removed. The washed red blood cells were kept as a 50% suspension in complete medium. The prepared cells were stored at 4° C. and were employed in the assay at any time up to 4 days after preparation.
(§7) Test compounds were dissolved at 2 mg/ml in 100% DMSO on the day of the assay. If necessary, complete dissolution was achieved by gentle heating (the mixture was heated at a temperature <37° C.) and sonication (sonication bath).
(§8) For IC50 determinations, 10 serial 2-fold dilutions were prepared in complete medium in the presence of a constant amount of DMSO. Any obvious signs of insolubility of the stock solutions in 100% DMSO or precipitation when these solutions were diluted in assay media, were recorded.
(§9) Plasmodium falciparum strains were maintained in complete medium at 5% of hematocrit in continuous culture using a method adapted from Trager W. and Jensen J. B. (Human malaria parasites in continuous culture Science 193 (4254) (1976) 673-675) and Trager W. (Cultivation of malaria parasites Methods Cell Biol. 45 (1994) 7-26).
(§10) The parasitemia was calculated by counting the percentage of parasitized erythrocytes by optical microscopy. Thin films of blood were made every day from each culture flask, fixed with methanol and stained for 10 min. in Giemsa (Merck, cat ref.: 1.09204) at 10% in buffered water pH 7.2. The glass slides were observed and counted with an optical microscope (Nikon, Eclipse E200) equipped with a 100× immersion oil objective.
(§11) The culture was maintained at 5% of hematocrit, with a daily change of medium and was diluted when parasitemia had reached about 5%.
(§12) [^3H] Hypoxanthine incorporation assay was conducted using a method adapted from Desjardins R. E. et al. (Quantitative assessment of antimalarial activity in vitro by a semiautomated microdilution technique. Antimicrob. Agents Chemother., 16 (6) (1979) 710-718). The assays were performed in 96 wells flat bottom microplates.
(§13) 1. Serial dilutions of each test compound (25 μl of a 5× solution/well) were deposited in one row of assay microtiter plate. Compounds of this invention were tested in this assay. Chloroquine and Azithromycin were used as control compounds for each assay.
(§14) 2. […] 100 μl of the resulting suspension was distributed into each well of columns 1-11 of assay microtiter plate leading to a final volume of 125 μl per well, at 1.2% of hematocrit and 0.4% of parasitemia/well.
(§15) 3. In each plate, 2 columns were reserved for control wells: • Column 11 (comprising wells A11-H11): Positive control wells: Untreated PRBCs to compare with cultures treated with test compounds. • Column 12 (comprising wells A12-H12): • Background value wells: Uninfected RBCs—blank control to obtain the background reading from RBCs without parasites (at 1.2% of hematocrite value).
(§16) 4. The plates were incubated at 37° C. under low oxygen atmosphere. […]

For assay [2], the system named is Plasmodium falciparum strain 3D7A. The assay can be described thus: In vitro screening protocol II, [3H] hypoxanthine incorporation IC50 assay, 3D7A. It is filed as cell-based. To be noted: P. falciparum 3D7A; for IC50: Plasmodium falciparum. Here is the method: as §1, §2, §3, §4, §5, §6, §7, §8, §9, §10, §11, §12, §13, §14, §15, §16
Assay [3] concerns P. falciparum D6 (CDC/Sierra Leone I, D-6). The assay can be described thus: In vitro screening protocol I, [3H]-hypoxanthine incorporation, D6. It is filed as cell-based, Plasmodium falciparum. Particulars: Plasmodium falciparum, D6, read-out: IC50 D6. In short, it runs like this: (§17)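 Asexual blood-stage P. falciparum was cultured in human A+ erythrocytes at 37 °C under 5% CO2/5% O2, and growth was measured by [3H]-hypoxanthine incorporation over 72 h total. TM91C235 was prescreened at 25,000, 2,500 and 25 ng/ml in folate-free medium. D-6 and W-2 IC50s came from 11-point two-fold dilutions by logistic fit.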

For the next assay, the system named is P. falciparum TM91C235. The assay can be described thus: In vitro screening protocol I, [3H]-hypoxanthine incorporation, TM91C235. The class given is cell-based, Plasmodium falciparum. To be noted: Plasmodium falciparum, read-out: IC50 TM91C235.
The test system of assay [4] is P. falciparum W2 (CDC/Indochina III, W-2). The assay can be described thus: In vitro screening protocol I, [3H]-hypoxanthine incorporation, W2. It is filed as cell-based, Plasmodium falciparum. To be noted: Plasmodium falciparum, W2, read-out: IC50 W2. In a few lines:
as §17

Converted amounts (≈) assume the structure as drawn.

Regarding “9a-(3-{[(4-Nitrophenyl)acetyl]amino}propyl)-9-deoxo-9-dihydro-9a-aza-9a-homoerythromycin A Formiate Salt [Example 64]”, in assay [1], the “IC50 W2” value is given as “C (200 < X ≦ 1000)”. In assay [2], the “IC50 3D7A” value is on record as “D (1000 < X ≦ 2500)”.

On to `CC(=O)O.CC(=O)O.CC[C@H]1OC(=O)[C@H](C)[C@@H](O[C@H]2C[C@@](C)(OC)[C@@H](O)[C@H](C)O2)[C@H](C)[C@@H](O[C@@H]2O[C@H](C)C[C@H](N(C)C)[C@H]2O)[C@](C)(O)C[C@@H](C)CN(CCCNC(=O)CCc2ccccc2)[C@H](C)[C@@H](O)[C@]1(C)O` [Example 47, 9a-{3-[(3-Phenylpropanoyl)amino]propyl}-9a-aza-9-deoxo-9-dihydro-9a-homoerythromycin A Diacetate Salt], for which, in assay [1], the “IC50 W2” value is reported as “D (1000 < X ≦ 2500)”. The “IC50 3D7A” value in assay [2] was “D (1000 < X ≦ 2500)”.

Take `CC[C@H]1OC(=O)[C@H](C)[C@@H](O[C@H]2C[C@@](C)(OC)[C@@H](O)[C@H](C)O2)[C@H](C)[C@@H](O[C@@H]2O[C@H](C)C[C@H](N(C)C)[C@H]2O)[C@](C)(O)C[C@@H](C)CN(CCCNCc2ccccc2)[C@H](C)[C@@H](O)[C@]1(C)O` [Example 52, 9a-{3-[(Phenylmethyl)amino]propyl}-9-deoxo-9-dihydro-9a-aza-9a-homoerythromycin A]: the IC50 (in general, the concentration that gives 50% inhibition) in assay [3] was 0.2 to 1 µg/mL (≈ 0.227 to 1.13 µM); in the assay on P. falciparum TM91C235, less than 0.1 µg/mL; in assay [4], less than 0.1 µg/mL.

For the compound `CC[C@H]1OC(=O)[C@H](C)[C@@H](O[C@H]2C[C@@](C)(OC)[C@@H](O)[C@H](C)O2)[C@H](C)[C@@H](O[C@@H]2O[C@H](C)C[C@H](N(C)C)[C@H]2O)[C@](C)(O)C[C@@H](C)CN(CCCNCc2ccc3ccccc3c2)[C@H](C)[C@@H](O)[C@]1(C)O` [Example 54, 9a-{3-[(Naphtalen-2-yl-methyl)amino]propyl}-9-deoxo-9-dihydro-9a-aza-9a-homoerythromycin A], the IC50 in assay [1] is less than 0.1 µg/mL; in assay [2] it was 0.1 to 0.2 µg/mL (≈ 0.107 to 0.215 µM).

With `CC[C@H]1OC(=O)[C@H](C)[C@@H](O[C@H]2C[C@@](C)(OC)[C@@H](O)[C@H](C)O2)[C@H](C)[C@@H](O[C@@H]2O[C@H](C)C[C@H](N(C)C)[C@H]2O)[C@](C)(O)C[C@@H](C)CN(CCCNCC2CCNc3ccccc32)[C@H](C)[C@@H](O)[C@]1(C)O` (some centres unmarked) [Example 55, 9a-{3-[(1,2,3,4-tetrahydro-quinolin-4-yl-methyl)amino]propyl}-9-deoxo-9-dihydro-9a-aza-9a-homoerythromycin A], the figures for the IC50 in assay [1] and in assay [2] were less than 0.1 µg/mL and 0.2 to 1 µg/mL (≈ 0.213 to 1.07 µM), respectively.

In the case of `CC[C@H]1OC(=O)[C@H](C)[C@@H](O)[C@H](C)[C@@H](O)[C@](C)(O)C[C@@H](C)CN(CCCNc2ccnc3cc(Cl)ccc23)[C@H](C)[C@@H](O)[C@]1(C)O` [Example 56], the IC50 in assay [1] was 0.1 to 0.2 µg/mL (≈ 0.157 to 0.313 µM); in assay [2] it was less than 0.1 µg/mL.

With `CCC1OC(=O)C(C)C(OC2CC(C)(OC)C(O)C(C)O2)C(C)C(OC2OC(C)CC(N(C)C)C2O)C(C)(O)CC(C)CN(CCCNC(=O)Cc2ccc(OC)cc2)C(C)C(O)C1(C)O.O=CO` (centres unmarked) [Example 58, 9a-[3-({[4-(Methyloxy)phenyl]acetyl}amino)propyl]-9-deoxo-9-dihydro-9a-aza-9a-homoerythromycin A Formiate Salt], the “IC50 W2” value in assay [1] is recorded as “C (200 < X ≦ 1000)”. Besides, the “IC50 3D7A” value in assay [2] is listed as “G (3500 < X ≦ 5000)”.

For the compound `CCC1OC(=O)C(C)C(OC2CC(C)(OC)C(O)C(C)O2)C(C)C(OC2OC(C)CC(N(C)C)C2O)C(C)(O)CC(C)CN(CCCNC(=O)c2cc(F)c(F)c(OC)c2F)C(C)C(O)C1(C)O.O=CO` (centres unmarked) [Example 59, 9a-[3-({[2,4,5-Trifluoro-3-(methyloxy)phenyl]carbonyl}amino)propyl]-9-deoxo-9-dihydro-9a-aza-9a-homoerythromycin A Formiate Salt], the “IC50 W2” value in assay [1] is given as “B (100 < X ≦ 200)”. Moreover, the “IC50 3D7A” value in assay [2] is on record as “D (1000 < X ≦ 2500)”.

As for `CC[C@H]1OC(=O)[C@H](C)[C@@H](O[C@H]2C[C@@](C)(OC)[C@@H](O)[C@H](C)O2)[C@H](C)[C@@H](O[C@@H]2O[C@H](C)C[C@H](N(C)C)[C@H]2O)[C@](C)(O)C[C@@H](C)CN(CCCNC(=O)C(Cc2ccc(F)cc2)NC(C)=O)[C@H](C)[C@@H](O)[C@]1(C)O.O=CO` (some centres unmarked) [Example 60, 9a-{3-[(N-Acetyl-4-fluorophenylalanyl)amino]propyl}-9-deoxo-9-dihydro-9a-aza-9a-homoerythromycin A Formiate Salt], in assay [1], the “IC50 W2” value is listed as “D (1000 < X ≦ 2500)”. In addition, the “IC50 3D7A” value in assay [2] is given as “H (5000 < X ≦ 10000)”.

For `CCC1OC(=O)C(C)C(OC2CC(C)(OC)C(O)C(C)O2)C(C)C(OC2OC(C)CC(N(C)C)C2O)C(C)(O)CC(C)CN(CCCNC(=O)Cc2cccc(Cl)c2)C(C)C(O)C1(C)O.O=CO` (centres unmarked) [Example 62, 9a-(3-{[(3-Chlorophenyl)acetyl]amino}propyl)-9-deoxo-9-dihydro-9a-aza-9a-homoerythromycin A Formiate Salt], the “IC50 W2” value in assay [1] is on record as “C (200 < X ≦ 1000)”. The “IC50 3D7A” value in assay [2] is “C (200 < X ≦ 1000)”.

For `CCC1OC(=O)C(C)C(OC2CC(C)(OC)C(O)C(C)O2)C(C)C(OC2OC(C)CC(N(C)C)C2O)C(C)(O)CC(C)CN(CCCNC(=O)Cc2ccc(Cl)cc2)C(C)C(O)C1(C)O.O=CO` (centres unmarked) [Example 63, 9a-(3-{[(4-Chlorophenyl)acetyl]amino}propyl)-9-deoxo-9-dihydro-9a-aza-9a-homoerythromycin A Formiate Salt], the “IC50 W2” value in assay [1] is reported as “C (200 < X ≦ 1000)”. For the same compound, the “IC50 3D7A” value in assay [2] is on record as “C (200 < X ≦ 1000)”.

Take `CCC1OC(=O)C(C)C(OC2CC(C)(OC)C(O)C(C)O2)C(C)C(OC2OC(C)CC(N(C)C)C2O)C(C)(O)CC(C)CN(CCCNC(=O)CCC(=O)c2ccccc2)C(C)C(O)C1(C)O.O=CO` (centres unmarked) [Example 65, 9a-{3-[(4-Oxo-4-phenylbutanoyl)amino]propyl}-9-deoxo-9-dihydro-9a-aza-9a-homoerythromycin A Formiate Salt]: the “IC50 W2” value in assay [1] is given as “D (1000 < X ≦ 2500)”. For the same compound, the “IC50 3D7A” value in assay [2] was “G (3500 < X ≦ 5000)”.

For `CCC1OC(=O)C(C)C(OC2CC(C)(OC)C(O)C(C)O2)C(C)C(OC2OC(C)CC(N(C)C)C2O)C(C)(O)CC(C)CN(CCCNC(=O)c2cc(Cl)ccc2[N+](=O)[O-])C(C)C(O)C1(C)O.O=CO` (centres unmarked) [Example 66, 9a-(3-{[(5-Chloro-2-nitrophenyl)carbonyl]amino}propyl)-9-deoxo-9-dihydro-9a-aza-9a-homoerythromycin A Formiate Salt], the “IC50 W2” value in assay [1] was “C (200 < X ≦ 1000)”. In addition, the “IC50 3D7A” value in assay [2] was “D (1000 < X ≦ 2500)”.

As for `CC[C@H]1OC(=O)[C@H](C)[C@@H](O[C@H]2C[C@@](C)(OC)[C@@H](O)[C@H](C)O2)[C@H](C)[C@@H](O[C@@H]2O[C@H](C)C[C@H](N(C)C)[C@H]2O)[C@](C)(O)C[C@@H](C)CN(CCCNC(=O)Cc2ccccc2[N+](=O)[O-])[C@H](C)[C@@H](O)[C@]1(C)O.O=CO` [Example 67, 9a-(3-{[(2-Nitrophenyl)acetyl]amino}propyl)-9-deoxo-9-dihydro-9a-aza-9a-homoerythromycin A Formiate Salt], the “IC50 W2” value in assay [1] is recorded as “D (1000 < X ≦ 2500)”. Moreover, the “IC50 3D7A” value in assay [2] is listed as “H (5000 < X ≦ 10000)”.
